# From patent publication US20200268728A1, “DRUG TARGETING CANCER STEM CELL” (Sumitomo Dainippon Pharma Co., Ltd., priority 2016, published 2020)
# Key:
# Assay in all cases: Sphere-forming ability of cultured cancer cell lines (Test Example 10)
# Format in all cases: cell-based
# LS 174T = details: Homo sapiens, LS174T, 96 h; LS 174T colon cancer cell line, 4 days
# Description: (§1) The colon cancer cell lines SW480, DLD1, HCT15, HT29, SW948, LS174T, LS411N, SW620, LoVo, HCT116, Colo205, and Hs698T, the pancreatic cancer cell lines MiaPaca2, HPAFII, Capan2, and Panc1, the head and neck cancer cell line FaDu, the breast cancer cell lines HCC1954 and T47D, the bladder cancer cell line SW780, the liver cancer cell line HepG2, the neuroblastoma cell lines U87MG and U251, the lung cancer cell lines H460, H1437, and A549, the prostate cancer cell lines DU145 and PC3, the soft tissue tumor cell line HT1080, the testicular cancer cell line NTERA2, and the ovarian cancer cell line SKOV3 was suspended in the sphere formation medium (DMEM-F12 medium of Test Example 3 was used), and seeded in a 384-well plate with Ultra-Low Attachment surface (Corning) in an amount of 5×10^3-10×10^3 cells/well. The compound of Example 24 was then added into each well to adjust the final concentration to 10-10000 nmol/L. The plate was cultured at 37° C. and 5% carbon dioxide in an incubator for 4 days. After the culture, CellTiterGlo (Promega) was added into all of the wells, and the plate was allowed to stand at room temperature for 10 minutes to measure the intensity of luminescence of each well. The concentrations of each test compound for 50% inhibition of cell proliferation to the cell lines (Sphere IC50 value; μmol/L) was calculated from the measured intensity of luminescence. When each gene mutation in Table is reported, the mutation is represented by “+” (gene mutation information is cited from the ATCC website (https://www.atcc.org/en/Products/Cells_and_Microorganisms/Cell_Lines/Cell_lines_by_genetic_mutation.aspx), Cancer Cell Line Encyclopedia (https://portals.broadinstitute.org/ccle_legacy/home), Proc. Natl. Acad. Sci. USA 94 (1997) 10330-10334).
# PC-3 = details: Homo sapiens, 96 h; PC-3 prostate cancer cell line, 4 days
# Description: as §1
# SW620 = details: Homo sapiens, SW-620, 96 h; SW620 colon cancer cell line, 4 days
# Description: as §1
# DLD-1 = details: Homo sapiens, 96 h; DLD-1 colon cancer cell line, 4 days
# Description: as §1
# T-47D = details: Homo sapiens, T47D, 96 h; T-47D breast cancer cell line, 4 days
# Description: as §1
# COLO 205 = details: Homo sapiens, 96 h; COLO 205 colon cancer cell line, 4 days
# Description: as §1
# HPAF-II = details: Homo sapiens, 96 h; HPAF-II pancreatic cancer cell line, 4 days
# Description: as §1
# Panc-1 = details: Homo sapiens, 96 h; Panc-1 pancreatic cancer cell line, 4 days
# Description: as §1
# Capan-2 = details: Homo sapiens, 96 h; Capan-2 pancreatic cancer cell line, 4 days
# Description: as §1
# FaDu = details: Homo sapiens, 96 h; FaDu head and neck cancer cell line, 4 days
# Description: as §1
# HCC1954 = details: Homo sapiens, 96 h; HCC1954 breast cancer cell line, 4 days
# Description: as §1
# NCI-H460 = details: Homo sapiens, 96 h; NCI-H460 lung cancer cell line, 4 days
# Description: as §1
# NCI-H1437 = details: Homo sapiens, 96 h; NCI-H1437 lung cancer cell line, 4 days
# Description: as §1
# HT-1080 = details: Homo sapiens, 96 h; HT-1080 soft tissue tumor cell line, 4 days
# Description: as §1
# LoVo = details: Homo sapiens, 96 h; LoVo colon cancer cell line, 4 days
# Description: as §1
# HT-29 = details: Homo sapiens, 96 h; HT-29 colon cancer cell line, 4 days
# Description: as §1
# HCT 116 = details: Homo sapiens, 96 h; HCT 116 colon cancer cell line, 4 days
# Description: as §1
# SW948 = details: Homo sapiens, 96 h; SW948 colon cancer cell line, 4 days
# Description: as §1
# DU 145 = details: Homo sapiens, 96 h; DU 145 prostate cancer cell line, 4 days
# Description: as §1
# SW 780 = details: Homo sapiens, SW780, 96 h; SW 780 bladder cancer cell line, 4 days
# Description: as §1
# U-87 MG = details: Homo sapiens, 96 h; U-87 MG glioblastoma cell line, 4 days
# Description: as §1
# A549 = details: Homo sapiens, 96 h; A549 lung cancer cell line, 4 days
# Description: as §1
# MIA PaCa-2 = details: Homo sapiens, 96 h; MIA PaCa-2 pancreatic cancer cell line, 4 days
# Description: as §1
# SW480 = details: Homo sapiens, 96 h; SW480 colon cancer cell line, 4 days
# Description: as §1
# Hs 698.T = details: 96 h; Hs 698.T colon cancer cell line, 4 days
# Description: as §1
# Hep G2 = details: Homo sapiens, HepG2, 96 h; Hep G2 liver cancer cell line, 4 days
# Description: as §1
# SK-OV-3 = details: Homo sapiens, 96 h; SK-OV-3 ovarian cancer cell line, 4 days
# Description: as §1
smiles,measurement,setting,value
"O=C(Nc1cn(Cc2cc(F)c(F)c(F)c2)cn1)c1cnc(CO)c(C(F)F)c1 [Example 24, 5-(difluoromethyl)-6-(hydroxymethyl)-N-[1-(3,4,5-trifluorobenzyl)-1H-imidazol-4-yl]nicotinamide]",IC50,LS 174T,15 nM
same,IC50,PC-3,> 10000 nM
same,IC50,SW620,27 nM
same,IC50,DLD-1,7 nM
same,IC50,T-47D,46 nM
same,IC50,COLO 205,142 nM
same,IC50,HPAF-II,764 nM
same,IC50,Panc-1,> 10000 nM
same,IC50,Capan-2,> 10000 nM
same,IC50,FaDu,9 nM
same,IC50,HCC1954,23 nM
same,IC50,NCI-H460,883 nM
same,IC50,NCI-H1437,3880 nM
same,IC50,HT-1080,> 10000 nM
same,IC50,LoVo,28 nM
same,IC50,HT-29,9 nM
same,IC50,HCT 116,91 nM
same,IC50,SW948,9 nM
same,IC50,DU 145,> 10000 nM
same,IC50,SW 780,56 nM
same,IC50,U-87 MG,89 nM
same,IC50,A549,> 10000 nM
same,IC50,MIA PaCa-2,8 nM
same,IC50,SW480,4 nM
same,IC50,Hs 698.T,> 10000 nM
same,IC50,Hep G2,72 nM
same,IC50,SK-OV-3,> 10000 nM
